Source: US20100137221A1, “PEPTIDES THAT INTERACT WITH TOPOISOMERASE I AND METHODS THEREOF” (UNIVERSITY UTAH RESEARCH FOUNDATION, priority 2007, published 2010)
“Also recorded” adds a separate entry of the source. Where two headings read alike, the source gives them in different places. Each block holds one molecule with its values, some of them ahead of it. No end group written: not given here.

How the values were obtained:
top1 [1] = target: T1, top1 (Homo sapiens, UniProt P11387); experiment: DNA cleavage complex assay with 9AC; assay type: biochemical; design: made in house; host or cells: Sf9 insect cells (baculovirus) or human placenta
T1 sequence (P11387 1-765): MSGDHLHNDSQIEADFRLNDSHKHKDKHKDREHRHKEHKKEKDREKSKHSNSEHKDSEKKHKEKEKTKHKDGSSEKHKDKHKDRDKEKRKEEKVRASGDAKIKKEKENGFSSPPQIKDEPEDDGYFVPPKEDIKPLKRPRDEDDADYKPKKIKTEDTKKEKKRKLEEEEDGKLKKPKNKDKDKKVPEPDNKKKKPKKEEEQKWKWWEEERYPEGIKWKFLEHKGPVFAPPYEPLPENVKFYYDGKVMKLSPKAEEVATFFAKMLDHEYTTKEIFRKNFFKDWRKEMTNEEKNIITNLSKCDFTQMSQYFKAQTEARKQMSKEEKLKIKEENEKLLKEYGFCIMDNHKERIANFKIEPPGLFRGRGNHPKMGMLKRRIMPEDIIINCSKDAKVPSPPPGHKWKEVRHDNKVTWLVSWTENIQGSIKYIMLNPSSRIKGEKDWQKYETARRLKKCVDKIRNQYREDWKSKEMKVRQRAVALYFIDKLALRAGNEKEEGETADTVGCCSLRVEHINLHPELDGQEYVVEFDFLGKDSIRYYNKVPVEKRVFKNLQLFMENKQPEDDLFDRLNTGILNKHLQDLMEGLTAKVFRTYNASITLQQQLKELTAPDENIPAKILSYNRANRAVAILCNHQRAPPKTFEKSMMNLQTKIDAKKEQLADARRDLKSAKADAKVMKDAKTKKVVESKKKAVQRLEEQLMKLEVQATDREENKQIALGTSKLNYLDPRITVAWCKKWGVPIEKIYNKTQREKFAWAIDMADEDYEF
Experimental: Top1 relaxation/cleavage activity assays: Peptides were assayed for their ability to interfere with or enhance relaxation of supercoiled DNA mediated by 100 kDa top1. The top1 and pBR322 were combined in a top1-reaction buffer (150 mM KCl, 12 mM MgCl2, 2 mM EDTA, 50 mM Tris HCl pH 7.5) at 37° C. for 30 minutes with 1 μM peptide. The 20 μl reactions were stopped with 1.0 μl of 1% SDS. Digestion of protein was performed by addition of 1.0 μg proteinase K for 30 minutes at 37° C., loaded with 5 μl of a standard 5×bromphenol blue/glycerol loading buffer and run in an 0.8% agarose gel in TAE (0.04 M Tris-acetate and 1.0 mM EDTA). […] The reactions were incubated for 30 minutes at 30° C. and then treated with 1 μl of 1 mg/ml proteinase K in 0.05% SDS for an additional 30 minutes at 37° C. to transform the 9AC-top1-DNA complexes into nicked DNA. This was followed by electrophoresis in an 0.8% agarose-TAE gel containing ethidium bromide. A control set of experiments and log serial dilutions of peptide were examined for each peptide. Percent cleavage was determined by liquid scintillation counting of excised bands using the method described by Marshall et al. (Marshall 2003).

100 kDa top1 = target: T2, 100 kDa top1 (Homo sapiens, UniProt P11387); experiment: top1-mediated DNA relaxation assay (supercoiled pBR322); assay type: biochemical; settings: 1 μM peptide
T2 construct: made in house; host or cells: Sf9 insect cells (baculovirus) or human placenta
T2 sequence (P11387 1-765): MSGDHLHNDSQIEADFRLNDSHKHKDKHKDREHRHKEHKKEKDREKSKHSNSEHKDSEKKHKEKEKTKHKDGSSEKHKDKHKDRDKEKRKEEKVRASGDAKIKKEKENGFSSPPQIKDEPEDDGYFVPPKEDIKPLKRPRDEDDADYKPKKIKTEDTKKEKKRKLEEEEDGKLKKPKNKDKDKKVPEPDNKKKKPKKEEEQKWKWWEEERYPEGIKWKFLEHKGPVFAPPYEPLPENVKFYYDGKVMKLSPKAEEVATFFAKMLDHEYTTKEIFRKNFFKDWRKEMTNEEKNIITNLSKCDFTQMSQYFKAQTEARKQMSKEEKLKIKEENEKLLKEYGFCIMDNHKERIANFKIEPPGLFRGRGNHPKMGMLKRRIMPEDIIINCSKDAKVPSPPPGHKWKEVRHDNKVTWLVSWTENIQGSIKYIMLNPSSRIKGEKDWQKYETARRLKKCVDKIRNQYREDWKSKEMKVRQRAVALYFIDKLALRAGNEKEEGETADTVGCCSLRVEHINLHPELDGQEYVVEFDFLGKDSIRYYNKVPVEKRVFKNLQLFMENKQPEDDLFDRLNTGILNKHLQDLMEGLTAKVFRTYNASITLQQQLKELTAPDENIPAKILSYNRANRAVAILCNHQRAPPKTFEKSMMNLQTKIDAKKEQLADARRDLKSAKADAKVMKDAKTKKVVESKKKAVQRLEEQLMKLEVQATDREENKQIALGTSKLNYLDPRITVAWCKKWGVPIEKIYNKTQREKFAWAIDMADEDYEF
Experimental: Top1 relaxation/cleavage activity assays: Peptides were assayed for their ability to interfere with or enhance relaxation of supercoiled DNA mediated by 100 kDa top1. The top1 and pBR322 were combined in a top1-reaction buffer (150 mM KCl, 12 mM MgCl2, 2 mM EDTA, 50 mM Tris HCl pH 7.5) at 37° C. for 30 minutes with 1 μM peptide. The 20 μl reactions were stopped with 1.0 μl of 1% SDS. Digestion of protein was performed by addition of 1.0 μg proteinase K for 30 minutes at 37° C., loaded with 5 μl of a standard 5×bromphenol blue/glycerol loading buffer and run in an 0.8% agarose gel in TAE (0.04 M Tris-acetate and 1.0 mM EDTA). DNA cleavage assays were performed in 20 μl volumes of reaction buffer (50 mM Tris-HCl (pH 7.5), 100 mM KCl, 10 mM MgCl2 0.5 mM EDTA, 0.2 mg/ml BSA), 500 ng of radiaolabeled (^3H thymidine) supercoiled rf (replicative form) M13 mp 19 DNA and 112 ng of top1. The reactions were incubated for 30 minutes at 30° C. and then treated with 1 μl of 1 mg/ml proteinase K in 0.05% SDS for an additional 30 minutes at 37° C. to transform the 9AC-top1-DNA complexes into nicked DNA. This was followed by electrophoresis in an 0.8% agarose-TAE gel containing ethidium bromide. […] Percent cleavage was determined by liquid scintillation counting of excised bands using the method described by Marshall et al. (Marshall 2003).

top1 [2] = target: T1, top1; settings: surface plasmon resonance
Experimental: Binding analysis: The binding analysis of the peptides was performed on a BIAcore 2000 instrument. A four channel CM5 sensor chip was derivatized with three top1 binding peptides (T1BPs 1, 2 and 4) and a control surface left blank. Catalytically active top1 was used as the mobile or analyte phase and diluted in 150 mM NaCl, 30 mM HEPES, 0.05% P20 and injected at various concentrations (8.0, 4.0, 2.0, 1.0 and 0.4 nM) through the instrument's microfluidics sample handling system at a flow rate of 30 μl/minute. With each injection of a particular concentration of top1, association and dissociation data for three peptides were generated. Binding constants were determined using the BIAevaluation 2.1 software.

top1 [3] = target: T1, top1; experiment: Biosensor binding specificity, top1 versus topoisomerase II and tubulin over T1BP2 surface; design: made in house; host or cells: Sf9 insect cells (baculovirus) or human placenta; settings: 8.0 nM of each protein injected over T1BP2 channel
Experimental: These top1 experiments were evaluated with BIAevaluation Software 3.1 using Langmuir Kinetics to model the interaction. The accuracy of the fit to the model is illustrated by dashed lines representing actual data and narrow lines representing the fitted curves.

human topoisomerase I [4] = target: T3, human topoisomerase I (human, UniProt P11387 1-765, limits assumed); experiment: phage display biopanning against top1-DNA-9AC, analytical titering against top1
T3 construct: also called top1; top 1
T3 sequence (looked up): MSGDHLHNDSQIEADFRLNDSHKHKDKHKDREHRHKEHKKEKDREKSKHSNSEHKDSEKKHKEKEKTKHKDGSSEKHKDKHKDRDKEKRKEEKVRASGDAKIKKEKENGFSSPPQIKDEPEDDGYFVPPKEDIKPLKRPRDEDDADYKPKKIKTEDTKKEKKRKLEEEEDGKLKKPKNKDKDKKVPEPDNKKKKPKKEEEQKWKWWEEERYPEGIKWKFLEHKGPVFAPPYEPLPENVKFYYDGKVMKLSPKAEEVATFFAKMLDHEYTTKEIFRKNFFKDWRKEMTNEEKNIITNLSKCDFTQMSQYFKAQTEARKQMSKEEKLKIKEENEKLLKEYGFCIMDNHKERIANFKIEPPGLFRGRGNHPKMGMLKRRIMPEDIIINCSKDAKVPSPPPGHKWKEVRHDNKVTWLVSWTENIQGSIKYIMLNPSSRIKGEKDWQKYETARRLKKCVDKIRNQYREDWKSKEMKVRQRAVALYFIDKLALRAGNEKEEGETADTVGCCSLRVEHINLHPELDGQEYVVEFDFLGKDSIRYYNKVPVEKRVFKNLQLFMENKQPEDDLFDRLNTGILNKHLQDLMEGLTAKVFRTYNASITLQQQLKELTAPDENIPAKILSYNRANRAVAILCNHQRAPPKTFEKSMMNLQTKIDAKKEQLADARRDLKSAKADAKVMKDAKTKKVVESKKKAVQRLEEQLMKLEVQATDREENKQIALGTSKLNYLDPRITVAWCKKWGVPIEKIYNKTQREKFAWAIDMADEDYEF
Experimental: Phage display: Phage display was performed as described by Smith (Parmley 1989). Briefly, top1 was first biotinylated with a biotin derivative containing a spacer engineered to reduced steric interference (Pierce EZ-Link Biotin-PEO-Amine). The reaction was performed at a 5:1 molar ratio of biotin:top1 in 10 mM HEPES (pH 8.2) buffered 500 mM NaCl. The unreacted biotin was removed by gel filtration in a Biospin 30 column (BioRad) and biotinylated top1 was assayed for activity using a pull down method with streptavidin coated beads. The biotinylated top1 maintained catalytic activity. For phage display, 20 μg biotinylated top1 was reacted with a mixture of pBR322 and 9AC and 20 μg was applied to a 30 mm plastic petri dish coated with 10 μg of neutravidin (Pierce). The dish was then blocked with 3.0% bovine serum albumin, and 10 μl of a 10⁹/μl titer phage library in 100 μl TBS-0.05% Tween was added. Phage were allowed to associate with gentle rocking for 2 hours at 4° C., and then washed repeatedly over 2 hours at 4° C. with buffered saline containing 0.1% Tween. […]
Analytical titering: Ten μl of amplified phage clones (approximately 10¹² cfu) were incubated in 50 nM top1 for one hour at 4° C. on a rocker. […] Competent E. coli were added directly to the washed plates and the output assessed by counting a 10⁻⁶ dilution of the culture on tetracycline plates (FIG. 1). […]

human topoisomerase I [5] = target: T3, human topoisomerase I; experiment: SPR (BIAcore), 100 kDa top1 applied at 1, 2.5, 5, 10 and 20 nM to the CPP1 flow cell, global fit [left panel]
Experimental: Top 1 was applied to flow cells in 1, 2.5, 5, 10 and 20 nM concentrations. The overlaying curves represent the actual data for a given concentration of top 1 and the “fit” curves. Data were fit using the BIAeval 3000 global fitting software.

T1BP2 = target: T4, T1BP2
T4 chain: SAYAATVRGPLSSAS

Molecule: SAYAATVRGPLSSAS [T1BP2, SAYAATVRGPLSSAS]
effect on cleavage (in words) (top1 [1]; 0.45 μM 9AC, 20 ng top1): increase in cleavage at all but one concentration | increase in cleavage complex formation (top1 [1]; 0.45 μM and 0.9 μM 9AC, through the range of peptide concentrations tested): approximately 50% | effect on top1-mediated DNA relaxation (100 kDa top1): slight ability to inhibit top1-mediated relaxation; also recorded: Inhibition of top1 relaxation (slight increase in supercoiled DNA remaining) | affinity for top1 (in words) (top1 [2]): high nanomolar affinity | affinity for top1 (in words) (top1 [2]; listed as T1PB2): mid-nanomolar affinity | binding specificity for top1 verses topoisomerase II and tubulin (top1 [3]): specificity for top1

B1: human topoisomerase I (protein)
chain: MSGDHLHNDSQIEADFRLNDSHKHKDKHKDREHRHKEHKKEKDREKSKHSNSEHKDSEKKHKEKEKTKHKDGSSEKHKDKHKDRDKEKRKEEKVRASGDAKIKKEKENGFSSPPQIKDEPEDDGYFVPPKEDIKPLKRPRDEDDADYKPKKIKTEDTKKEKKRKLEEEEDGKLKKPKNKDKDKKVPEPDNKKKKPKKEEEQKWKWWEEERYPEGIKWKFLEHKGPVFAPPYEPLPENVKFYYDGKVMKLSPKAEEVATFFAKMLDHEYTTKEIFRKNFFKDWRKEMTNEEKNIITNLSKCDFTQMSQYFKAQTEARKQMSKEEKLKIKEENEKLLKEYGFCIMDNHKERIANFKIEPPGLFRGRGNHPKMGMLKRRIMPEDIIINCSKDAKVPSPPPGHKWKEVRHDNKVTWLVSWTENIQGSIKYIMLNPSSRIKGEKDWQKYETARRLKKCVDKIRNQYREDWKSKEMKVRQRAVALYFIDKLALRAGNEKEEGETADTVGCCSLRVEHINLHPELDGQEYVVEFDFLGKDSIRYYNKVPVEKRVFKNLQLFMENKQPEDDLFDRLNTGILNKHLQDLMEGLTAKVFRTYNASITLQQQLKELTAPDENIPAKILSYNRANRAVAILCNHQRAPPKTFEKSMMNLQTKIDAKKEQLADARRDLKSAKADAKVMKDAKTKKVVESKKKAVQRLEEQLMKLEVQATDREENKQIALGTSKLNYLDPRITVAWCKKWGVPIEKIYNKTQREKFAWAIDMADEDYEF
cleavage complex formation (top1-DNA-9AC cleavage assay) (T1BP2): T1BP2 increased cleavage complex formation approximately 50%

Continued, values first:

binding result (human topoisomerase I [4]): binds
Molecule: RNQGPVKMVFPIAPS (also called CPP5) [T1BP4]

binding result (human topoisomerase I [5]): binds
Molecule: LAVRRYALGNGYDWS [CPP1]
